Where two headings read alike, the source gives them in different places.
Experiments:
CDK9/CycT1 = molecular target: T1, CDK9/CycT1 (Homo sapiens, UniProt P50750); experiment: CDK9/CycT1 kinase assay (TR-FRET, Method 1a); assay type: biochemical; details: for IC50: Method 1a, 10 μM ATP; for Selectivity CDK9 over CDK2: IC50 (CDK2)/IC50 (CDK9): Methods 1a and 2a, minimal values where CDK9 IC50 is at the assay limit
T1 construct: Recombinant full-length His-tagged human CDK9 and CycT1; His; purchased Invitrogen PV4131; host or cells: insect cells
T1 sequence (P50750 whole entry): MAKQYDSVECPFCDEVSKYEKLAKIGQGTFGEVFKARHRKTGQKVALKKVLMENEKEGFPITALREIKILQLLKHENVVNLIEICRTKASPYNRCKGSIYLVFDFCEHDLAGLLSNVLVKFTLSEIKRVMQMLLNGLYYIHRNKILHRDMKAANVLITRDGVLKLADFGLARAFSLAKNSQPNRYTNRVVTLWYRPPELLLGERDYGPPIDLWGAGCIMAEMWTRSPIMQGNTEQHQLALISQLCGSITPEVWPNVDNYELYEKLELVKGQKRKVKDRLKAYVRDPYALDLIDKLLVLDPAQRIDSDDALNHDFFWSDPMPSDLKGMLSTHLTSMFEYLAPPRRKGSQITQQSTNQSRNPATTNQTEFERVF
T1 sequence (O60563 whole entry partner): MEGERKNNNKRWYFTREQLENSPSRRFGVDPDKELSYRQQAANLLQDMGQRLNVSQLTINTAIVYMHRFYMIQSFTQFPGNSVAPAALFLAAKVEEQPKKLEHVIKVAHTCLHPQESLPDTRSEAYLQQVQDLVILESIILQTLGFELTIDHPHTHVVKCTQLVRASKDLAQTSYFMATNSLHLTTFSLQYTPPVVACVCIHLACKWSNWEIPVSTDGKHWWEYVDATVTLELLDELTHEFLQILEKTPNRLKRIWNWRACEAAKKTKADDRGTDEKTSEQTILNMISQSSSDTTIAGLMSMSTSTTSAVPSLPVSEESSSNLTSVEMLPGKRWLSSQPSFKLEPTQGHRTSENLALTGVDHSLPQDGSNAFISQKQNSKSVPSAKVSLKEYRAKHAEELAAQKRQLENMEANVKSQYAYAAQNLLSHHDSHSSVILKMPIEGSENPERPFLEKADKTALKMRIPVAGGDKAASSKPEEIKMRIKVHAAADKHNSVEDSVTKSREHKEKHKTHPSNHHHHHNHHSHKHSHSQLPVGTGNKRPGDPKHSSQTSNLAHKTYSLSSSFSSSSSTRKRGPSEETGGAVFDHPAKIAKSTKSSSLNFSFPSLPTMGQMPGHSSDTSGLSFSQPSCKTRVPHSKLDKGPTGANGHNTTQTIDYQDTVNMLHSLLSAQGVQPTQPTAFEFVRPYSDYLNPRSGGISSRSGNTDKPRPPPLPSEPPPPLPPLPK
Text: 1a. CDK9/CycT1 Kinase Assay:
CDK9/CycT1-inhibitory activity of compounds of the present invention was quantified employing the CDK9/CycT1 TR-FRET assay as described in the following paragraphs:
Recombinant full-length His-tagged human CDK9 and CycT1, expressed in insect cells and purified by Ni-NTA affinity chromatography, were purchased from Invitrogen (Cat. No PV4131). As substrate for the kinase reaction biotinylated peptide biotin-Ttds-YISPLKSPYKISEG (C-terminus in amid form) was used which can be purchased e.g. from the company JERINI Peptide Technologies (Berlin, Germany). For the assay 50 nl of a 100 fold concentrated solution of the test compound in DMSO was pipetted into a black low volume 384 well microtiter plate (Greiner Bio-One, Frickenhausen, Germany), 2 μl of a solution of CDK9/CycT1 in aqueous assay buffer [50 mM Tris/HCl pH 8.0, 10 mM MgCl2, 1.0 mM dithiothreitol, 0.1 mM sodium ortho-vanadate, 0.01% (v/v) Nonidet-P40 (Sigma)] were added and the mixture was incubated for 15 min at 22° C. to allow pre-binding of the test compounds to the enzyme before the start of the kinase reaction. […] The concentration of CDK9/CycT1 was adjusted depending of the activity of the enzyme lot and was chosen appropriate to have the assay in the linear range, typical concentrations were in the range of 1 μg/mL. The reaction was stopped by the addition of 5 μl of a solution of TR-FRET detection reagents (0.2 μM streptavidine-XL665 [Cisbio Bioassays, Codolet, France] and 1 nM anti-RB(pSer807/pSer811)-antibody from BD Pharmingen [#558389] and 1.2 nM LANCE EU-W1024 labeled anti-mouse IgG antibody [Perkin-Elmer, product no. AD0077]) in an aqueous EDTA-solution (100 mM EDTA, 0.2% (w/v) bovine serum albumin in 100 mM HEPES pH 7.5).
The resulting mixture was incubated 1 h at 22° C. to allow the formation of complex between the phosphorylated biotinylated peptide and the detection reagents. Subsequently the amount of phosphorylated substrate was evaluated by measurement of the resonance energy transfer from the Eu-chelate to the streptavidine-XL. Therefore, the fluorescence emissions at 620 nm and 665 nm after excitation at 350 nm was measured in a HTRF reader, e.g. a Rubystar (BMG Labtechnologies, Offenburg, Germany) or a Viewlux (Perkin-Elmer). The ratio of the emissions at 665 nm and at […] was taken as the measure for the amount of phosphorylated substrate. The data were normalised (enzyme reaction without inhibitor=0% inhibition, all other assay components but no enzyme=100% inhibition).

NCI-H460 cells = experiment: Proliferation assay NCI-H460; assay type: cell-based, human; details: 4 days, crystal violet, read-out: Inhibition of NCI-H460 cell proliferation IC50
Experimental: (§1) Cultivated tumour cells (HeLa, human cervical tumour cells, ATCC CCL-2; NCI-H460, human non-small cell lung carcinoma cells, ATCC HTB-177; A2780, human ovarian carcinoma cells, ECACC #93112519; DU 145, hormone-independent human prostate carcinoma cells, ATCC HTB-81; HeLa-MaTu-ADR, multidrug-resistant human cervical carcinoma cells, EPO-GmbH Berlin; Caco-2, human colorectal carcinoma cells, ATCC HTB-37; B16F10, mouse melanoma cells, ATCC CRL-6475) were plated at a density of 5,000 cells/well (DU145, HeLa-MaTu-ADR), 3,000 cells/well (NCI-H460, HeLa), 2,500 cells/well (A2780), 1,500 cells/well (Caco-2), or 1,000 cells/well (B16F10) in a 96-well multititer plate in 200 μL of their respective growth medium supplemented 10% fetal calf serum. After 24 hours, the cells of one plate (zero-point plate) were stained with crystal violet (see below), while the medium of the other plates was replaced by fresh culture medium (200 μl), to which the test substances were added in various concentrations (0 μM, as well as in the range of 0.001-10 μM). The cells were incubated for 4 days in the presence of test substances. Cell proliferation was determined by staining the cells with crystal violet: the cells were fixed by adding 20 μl/measuring point of an 11% glutaric aldehyde solution for 15 minutes at room temperature. After three washing cycles of the fixed cells with water, the plates were dried at room temperature. The cells were stained by adding 100 μl/measuring point of a 0.1% crystal violet solution (pH 3.0). After three washing cycles of the stained cells with water, the plates were dried at room temperature. The dye was dissolved by adding 100 μl/measuring point of a 10% acetic acid solution. The extinction was determined by photometry at a wavelength of 595 nm. The change of cell number, in percent, was calculated by normalization of the measured values to the extinction values of the zero-point plate (=0%) and the extinction of the untreated (0 μm) cells (=100%). The IC50 values (inhibitory concentration at 50% of maximal effect) were determined by means of a 4 parameter fit. Non-adherent MOLM-13 human acute myeloid leukemia cells (DSMZ ACC 554) were seeded at a density of 5,000 cells/well in a 96-well multititer plate in 100 μL of growth medium supplemented 10% fetal calf serum. After 24 hours, cell viability of one plate (zero-point plate) was determined with the Cell Titre-Glo Luminescent Cell Viability Assay (Promega), while 50 μL of test compound containing medium was added to the wells of the other plates (final concentrations in the range of 0.001-1 μM and DMSO controls). Cell viability was assessed after 72-hour exposure with the Cell Titre-Glo Luminescent Cell Viability Assay (Promega). IC50 values (inhibitory concentration at 50% of maximal effect) were determined by means of a 4 parameter fit on measurement data which were normalized to vehicle (DMSO) treated cells (=100%) and measurement readings taken immediately before compound exposure (=0%).

HeLa cells = experiment: Proliferation assay HeLa; assay type: cell-based, human; details: 4 days, crystal violet, read-out: Inhibition of HeLa cell proliferation IC50
Experimental: as §1

| IC50 (CDK9/CycT1) | Selectivity CDK9 over CDK2: IC50 (CDK2)/IC50 (CDK9) (CDK9/CycT1) | IC50 (NCI-H460 cells; Homo sapiens, NCI-H460, 96 h) | IC50 (HeLa cells; Homo sapiens, HeLa, 96 h) | IC50 (NCI-H460 cells; trifluoroacetate) | IC50 (HeLa cells; trifluoroacetate) | Structure (SMILES) |
| --- | --- | --- | --- | --- | --- | --- |
| 5.3 nM | 2.2 | 35 nM | 26 nM |  |  | CCOC(=O)N=S(C)(=O)Cc1cc2nc(c1)OCCCOc1cc(F)ccc1-c1cc(ncc1F)N2 (racemic) [Example 20, (rac)-ethyl [{[15,19-difluoro-3,4-dihydro-2H,11H-10,6-(azeno)-12,16-(metheno)-1,5,11,13-benzodioxadiazacyclooctadecin-8-yl]methyl}(methyl)oxido-λ^6-sulfanylidene]carbamate] |
| 5.3 nM | 3.7 | 36 nM | 17 nM |  |  | CS(=O)(=O)N=S(C)(=O)Cc1cc2nc(c1)OCCCOc1cc(F)ccc1-c1cc(ncc1F)N2 (racemic) [Example 22, (rac)-N-[{[15,19-difluoro-3,4-dihydro-2H,11H-10,6-(azeno)-12,16-(metheno)-1,5,11,13-benzodioxadiazacyclooctadecin-8-yl]methyl}(methyl)oxido-λ^6-sulfanylidene]methanesulfonamide] |
| 3.8 nM | 1.3 | 20 nM | 12 nM |  |  | CS(=O)(=O)Cc1cc2nc(c1)OCCCOc1cc(F)ccc1-c1cc(ncc1F)N2 [Example 8, 15,19-difluoro-8-[(methylsulfonyl)methyl]-3,4-dihydro-2H,11H-10,6-(azeno)-12,16-(metheno)-1,5,11,13-benzodioxadiazacyclooctadecine] |
| 4 nM | 4.2 | 33 nM |  |  |  | C[S+]([O-])Cc1cc2nc(c1)OCCCCOc1cc(F)ccc1-c1cc(ncc1F)N2 (racemic) [Example 13, (rac)-16,20-difluoro-9-[(methylsulfinyl)methyl]-2,3,4,5-tetrahydro-12H-11,7-(azeno)-13,17-(metheno)-1,6,12,14-benzodioxadiazacyclononadecine] |
| 2.8 nM | 1.7 | 12 nM | 4 nM |  |  | C[S+]([O-])Cc1cc2nc(c1)OCCCOc1cc(F)ccc1-c1cc(ncc1F)N2 (racemic) [Example 4, (rac)-15,19-Difluoro-8-[(methylsulfinyl)methyl]-3,4-dihydro-2H,11H-10,6-(azeno)-12,16-(metheno)-1,5,11,13-benzodioxadiazacyclooctadecine] |
| 4.9 nM | 1.7 | 27 nM | 10 nM |  |  | CC(=O)N=S(C)(=O)Cc1cc2nc(c1)OCCCOc1cc(F)ccc1-c1cc(ncc1F)N2 (racemic) [Example 18, (rac)-N-[{[15,19-difluoro-3,4-dihydro-2H,11H-10,6-(azeno)-12,16-(metheno)-1,5,11,13-benzodioxadiazacyclooctadecin-8-yl]methyl}(methyl)oxido-λ^6-sulfanylidene]acetamide] |
| 7.3 nM | 1.6 | 28 nM | 11 nM |  |  | CS(=O)(Cc1cc2nc(c1)OCCCOc1cc(F)ccc1-c1cc(ncc1F)N2)=NC(=O)OCCCl (racemic) [Example 21, (rac)-2-chloroethyl [{[15,19-difluoro-3,4-dihydro-2H,11H-10,6-(azeno)-12,16-(metheno)-1,5,11,13-benzodioxadiazacyclooctadecin-8-yl]methyl}(methyl)oxido-λ^6-sulfanylidene]carbamate] |
| 2.2 nM | 6.2 |  |  | 391 nM | 82 nM | CS(=O)(Cc1cc2nc(c1)OCCCOc1cc(F)ccc1-c1cc(ncc1F)N2)=NS(=O)(=O)CCN.O=C(O)C(F)(F)F (racemic) [Example 24, (rac)-2-{[{[15,19-difluoro-3,4-dihydro-2H,11H-10,6-(azeno)-12,16-(metheno)-1,5,11,13-benzodioxadiazacyclooctadecin-8-yl]methyl}(methyl)oxido-λ^6-sulfanylidene]sulfamoyl}ethanaminium trifluoroacetate] |
| 8.7 nM | 3.5 | 741 nM | 57 nM |  |  | CS(=O)(Cc1cc2nc(c1)OCCCOc1cc(F)ccc1-c1cc(ncc1F)N2)=NS(=O)(=O)CCN (racemic) [Example 23, (rac)-2-amino-N-[{[15,19-difluoro-3,4-dihydro-2H,11H-10,6-(azeno)-12,16-(metheno)-1,5,11,13-benzodioxadiazacyclooctadecin-8-yl]methyl}(methyl)oxido-λ^6-sulfanylidene]ethanesulfonamide] |
| 5.3 nM | 2.9 | 49 nM | 31 nM |  |  | CN=S(C)(=O)Cc1cc2nc(c1)OCCCOc1cc(F)ccc1-c1cc(ncc1F)N2 (racemic) [Example 19, (rac)-8-[(N,S-dimethylsulfonimidoyl)methyl]-15,19-difluoro-3,4-dihydro-2H,11H-10,6-(azeno)-12,16-(metheno)-1,5,11,13-benzodioxadiazacyclooctadecine] |
| 2.9 nM | 7.4 | 20 nM | 8 nM |  |  | CS(=N)(=O)Cc1cc2cc(c1)OCCCCOc1cc(F)ccc1-c1nc(ncc1F)N2 (racemic) [Example 1, (rac)-16,20-Difluoro-9-[(S-methylsulfonimidoyl)methyl]-2,3,4,5-tetrahydro-12H-13,17-(azeno)-11,7-(metheno)-1,6,12,14-benzodioxadiazacyclononadecine] |
| 18 nM | 963.7 |  |  |  |  | CSCc1cc2nc(c1)OCCOc1cc(F)ccc1-c1cc(ncc1F)N2 [Example 9, 14,18-Difluoro-7-[(methylsulfanyl)methyl]-2,3-dihydro-10H-9,5-(azeno)-11,15-(metheno)-1,4,10,12-benzodioxadiazacycloheptadecine] |
